According to ChEMBL document CHEMBL1151251, “Monanchorin, a bicyclic alkaloid from the sponge Monanchora ungiculata” (J Nat Prod, 2004):
Converted amounts (≈) assume the structure as drawn.

Test: Cytotoxicity against mouse IC2 cells
Assay type: functional, cell-based

Compound	IC50 [mg/L]
CC[C@@H]1C=CCC[C@]2(C[C@H]3CC[C@H]4[C@@H](C(=O)O)[C@@]5(CCC[C@H](C)O5)N=C(N2)N34)O1 [CRAMBESIDIN ACID]	25 (≈ 62 µM)
CCCCC[C@@H]1O[C@@H]2CC[C@@H]1NC(=N)N2 [MONANCHORIC ACID]	11.3 (≈ 53.5 µM)
